Experimental data from US6632816B1, “Aromatic derivatives as HIV aspartyl protease inhibitors” (Pharmacor Inc., priority 2002, dated 2003).
Where two headings read alike, the source gives them in different places.

Tests used:
[1] = test system: HIV-1 laboratory viral strain NL4.3 (wild type virus); experiment: Anti-viral assay in vitro (MTT, infected MT-4 cells); type: cell-based; settings: MT-4 cells infected with NL4.3, six days, MTT assay, read-out: EC50
Protocol: Anti-viral and Cytotoxicity Assays In Vitro
To evaluate the EC50 of our compounds, various drug concentrations are incubated with the infected cell for six days and then the metabolic activity of the cells is monitored by the MTT assay. (See A. J. Japour et al, Antimicrobial Agents and Chemotherapy, 37, 1095-1101, 1993 and R. Pauwels et al. Journal of Virological Methods, 20, 309-321, 1988)
We use the laboratory viral strain NL4.3 as wild type virus and the cell line used is MT-4 which is a T-cell line highly sensitive to HIV-1. We also use some WT clinical strains. To address the resistance issue we assay the inhibitors with NL4.3 mutants which are designed to be resistant to specific commercially,available inhibitors

[2] = biological target: T1, HIV protease (Human immunodeficiency virus type 1 group M subtype B, UniProt P04585); settings: FRET assay, Henderson equation
[3] = biological target: T1, HIV protease; experiment: biochemical
[4] = Human immunodeficiency virus 1, MT4, 144 h

| Compound | EC50 [1] [nM] | Ki [2] [nM] | EC50 [1, 4] [nM] | Ki [3] [nM] |
| --- | --- | --- | --- | --- |
| COC(=O)N[C@@H](Cc1ccccc1-c1ccccc1)C(=O)NCCCCC(CO)N(CC(C)C)S(=O)(=O)c1ccc(N)cc1 (stereo partly drawn) [Example 30, (1S,5R,S)-(1-{5-[(4-Amino-benzenesulfonyl)-isobutyl-amino]-6-hydroxy-hexylcarbamoyl}-2-biphenyl-2-yl-ethyl)-carbamic Acid Methyl Ester] | 344 | 1.4 | – | – |
| CC(C)CN([C@H](CO)CCCCNC(=O)[C@H](Cc1cccc2ccccc12)NC(=O)N1CCOCC1)S(=O)(=O)c1ccc(F)c(N)c1 [Example 53, (1S,5S)-Morpholine-4-carboxylic Acid (1-{5-[(3-Amino-4-fluoro-benzenesulfonyl)-isobutyl-amino]-6-hydroxy-hexylcarbamoyl}-2-naphthalen-1-yl-ethyl)-amide] | – | – | 40 | 0.626 |
| CC(C)CN([C@H](CO)CCCCNC(=O)[C@H](Cc1ccc2ccccc2c1)NC(=O)c1cccnc1)S(=O)(=O)c1ccc(N)cc1 [Example 54, (1S,5S)-N-(1-{5-[(4-Amino-benzenesulfonyl)-isobutyl-amino]-6-hydroxy-hexylcarbamoyl}-2-naphthalen-2-yl-ethyl)-nicotinanide] | – | – | 146 | 1.4 |
| CC(C)CN([C@H](CO)CCCCNC(=O)[C@H](Cc1ccc2ccccc2c1)NC(=O)c1ccncc1)S(=O)(=O)c1ccc(N)cc1 [Example 55, (1S,5S)-N-(1-{5-[(4-Amino-benzenesulfonyl)-isobutyl-amino]-6-hydroxy-hexylcarbamoyl}-2-naphthalen-2-yl-ethyl)-isonicotinamide] | – | – | 110 | 1.3 |
| COC(=O)N[C@@H](Cc1ccccc1-c1cccc(F)c1)C(=O)NCCCC[C@@H](CO)N(CC(C)C)S(=O)(=O)c1ccc(F)c(N)c1 [Example 56, (1S,5S)-[1-{5-[(3-Amino-4-fluoro-benzenesulfonyl)-isobutyl-amino]-6-hydroxy-hexylcarbamoyl}-2-(3′-fluoro-biphenyl-2-yl)-ethyl]-carbamic Acid Methyl Ester] | – | – | 300 | 1.3 |
| COC(=O)N[C@H](C(=O)NCCCC[C@@H](CO)N(CC(C)C)S(=O)(=O)c1ccc(F)c(N)c1)C(c1ccccc1)c1ccccc1 [Example 58, (1S,5S)-(1-{5-[(3-Amino-4-fluoro-benzenesulfonyl)-isobutyl-amino]-6-hydroxy-hexylcarbamoyl}-2,2-diphenyl-ethyl)-carbamic Acid Methyl Ester] | – | – | 25 | 0.65 |
| CC(C)CN([C@H](CO)CCCCNC(=O)[C@H](Cc1ccc2ccccc2c1)NC(=O)c1cnccn1)S(=O)(=O)c1ccc(N)cc1 [Example 62, (1S,5S)-Pyrazine-2-carboxylic Acid (1-{5-[(4-Amino-benzenesulfonyl)-isobutyl-amino]-6-hydroxy-hexylcarbamoyl}-2-naphthalen-2-yl-ethyl)-amide] | – | – | 361 | 2.1 |
| CC(C)CN([C@H](CO)CCCCNC(=O)[C@H](Cc1cccc2ccccc12)NC(=O)N1CCOCC1)S(=O)(=O)c1ccc2c(c1)OCO2 [Example 66, (1S,5S)-Morpholine-4-carboxylic Acid (1-{5-[(Benzo[1,3]dioxole-5-sulfonyl)-isobutyl-amino]-6-hydroxy-hexylcarbamoyl}-2-naphthalen-1-yl-ethyl)-amide] | – | – | 409 | 1.1 |
| CC(=O)N[C@H](C(=O)NCCCC[C@@H](CO)N(CC(C)C)S(=O)(=O)c1ccc(N)cc1)C(c1ccccc1)c1ccccc1 [Example 71, (2S,5S)-2-Acetylamino-N-{5-[(4-amino-benzenesulfonyl)-isobutyl-amino]-6-hydroxy-hexyl}-3,3-diphenyl-propionamide] | – | – | 66 | 1.5 |
| CC(C)CN([C@H](CO)CCCCNC(=O)[C@@H](NC(=O)c1cccnc1)C(c1ccccc1)c1ccccc1)S(=O)(=O)c1ccc(N)cc1 [Example 73, (1S,5S)-N-(1-{5-[(4-Amino-benzenesulfonyl)-isobutyl-amino]-6-hydroxy-hexylcarbamoyl}-2,2-diphenyl-ethyl)-nicotinamide] | – | – | 39 | 0.681 |
| CC(C)CN([C@H](CO)CCCCNC(=O)[C@@H](NC(=O)c1ccncc1)C(c1ccccc1)c1ccccc1)S(=O)(=O)c1ccc(N)cc1 [Example 74, (1S,5S)-N-(1-{5-[(4-Amino-benzenesulfonyl)-isobutyl-amino]-6-hydroxy-hexylcarbamoyl}-2,2-diphenyl-ethyl)-isonicotinamide] | – | – | 32 | 0.647 |
| CC(C)CN([C@H](CO)CCCCNC(=O)[C@@H](NC(=O)C1CC1)C(c1ccccc1)c1ccccc1)S(=O)(=O)c1ccc(N)cc1 [Example 75, (1S,5S)-Cyclopropanecarboxylic Acid (1-{5-[(4-Amino-benzenesulfonyl)-isobutyl-amino]-6-hydroxy-hexylcarbamoyl}-2,2-diphenyl-ethyl)-amide] | – | – | 25 | < 3.8 |
| CC(C)CN([C@H](CO)CCCCNC(=O)[C@@H](NC(=O)C1CCCCC1)C(c1ccccc1)c1ccccc1)S(=O)(=O)c1ccc(N)cc1 [Example 76, (1S,5S)-Cyclohexanecarboxylic Acid (1-{5-[(4-Amino-benzenesulfonyl)-isobutyl-amino]-6-hydroxy-hexylcarbamoyl}-2,2-diphenyl-ethyl)-amide] | – | – | 93 | < 3.8 |
| CC(C)CN(C(CO)CCCCNC(=O)C(NC(=O)C1CCOC1)C(c1ccccc1)c1ccccc1)S(=O)(=O)c1ccc(N)cc1 [Example 77, (1S,3R,S,5S)-Tetrahydro-furan-3-carboxylic Acid (1-{5-[(4-Amino-benzenesulfonyl)-isobutyl-amino]-6-hydroxy-hexylcarbamoyl}-2,2-diphenyl-ethyl)-amide] | – | – | 68 | 0.581 |
| COC(=O)N[C@H](C(=O)NCCCC[C@@H](CO)N(CC(C)C)S(=O)(=O)c1ccc(F)cc1)C(c1ccccc1)c1ccccc1 [Example 78, (1S,5S)-(1-{5-[(4-Fluoro-benzenesulfonyl)-isobutyl-amino]-6-hydroxy-hexylcarbamoyl}-2,2-diphenyl-ethyl)-carbamic Acid Methyl Ester] | – | – | 94 | < 3.8 |
| COC(=O)N[C@H](C(=O)NCCCC[C@@H](CO)N(CC(C)C)S(=O)(=O)c1ccc(C#N)cc1)C(c1ccccc1)c1ccccc1 [Example 79] | – | – | 65 | < 3.8 |
| COC(=O)N[C@H](C(=O)NCCCC[C@@H](CO)N(CC(C)C)S(=O)(=O)c1ccc(F)cc1F)C(c1ccccc1)c1ccccc1 [Example 80, (1S,5S)-(1-{5-[(2,4-Difluoro-benzenesulfonyl)-isobutyl-amino]-6-hydroxy-hexylcarbamoyl}-2,2-diphenyl-ethyl)-carbamic Acid Methyl Ester] | – | – | 48 | < 3.8 |
